Experimental data reported in article PMC8498988, “Scaffold Hybridization Strategy Leads to the Discovery of Dopamine D3 Receptor-Selective or Multitarget Bitopic Ligands Potentially Useful for Central Nervous System Disorders” (ACS Chemical Neuroscience, 2021).
Where two headings read alike, the source gives them in different places. Marks after values point to notes of the source that are not given here.

Legend:
human D1R = biological target: T1, human D1R (Homo sapiens, UniProt P21728); conditions: human cloned receptor; read-out: Ki ± SEM, D1R; cited from earlier work
T1 construct: expressed in transfected cells; host or cells: mouse fibroblast cells (LhD1)

human 5-HT1AR = biological target: T2, human 5-HT1AR (Homo sapiens, UniProt P08908); conditions: human cloned receptor; read-out: Ki ± SEM, 5-HT1AR; cited from earlier work
T2 construct: expressed in transfected cells; host or cells: HeLa
T2 sequence (P08908 1-422): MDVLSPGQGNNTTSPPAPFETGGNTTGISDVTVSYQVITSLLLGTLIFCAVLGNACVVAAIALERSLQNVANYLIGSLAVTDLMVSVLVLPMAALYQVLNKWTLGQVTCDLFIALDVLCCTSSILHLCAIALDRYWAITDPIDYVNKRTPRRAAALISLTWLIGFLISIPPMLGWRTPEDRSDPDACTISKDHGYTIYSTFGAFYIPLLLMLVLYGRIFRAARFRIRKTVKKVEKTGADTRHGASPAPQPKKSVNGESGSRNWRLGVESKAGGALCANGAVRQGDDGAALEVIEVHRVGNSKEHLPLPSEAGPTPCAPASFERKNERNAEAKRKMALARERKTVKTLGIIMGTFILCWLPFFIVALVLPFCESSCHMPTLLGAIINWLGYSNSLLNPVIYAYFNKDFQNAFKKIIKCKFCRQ

D3R [1] = biological target: T3, D3R (Homo sapiens, UniProt P35462); test: Radioligand competition binding at human D3R ([3H]N-methylspiperone, HEK293 membranes); design: expressed in transfected cells; host or cells: HEK293
Description: The novel hybrid derivatives 3–11 were tested at hD2R, hD3R, or hD4R stably expressed in HEK293 cells by competition binding assays, using [^3H]N-methylspiperone as the radioligand, to evaluate their D2-like affinity and subtype selectivity, following the previously reported procedures.[41],[45],[46]
Binding at dopamine D2-like receptors was determined using previously described methods.[41],[45],[46] Membranes were prepared from HEK293 cells stably expressing human D2, D3, or D4, grown in a 50:50 mix of Dulbecco’s minimal essential medium (DMEM) and Ham’s F12 culture media, supplemented with 20 mM HEPES, 2 mM L-glutamine, 0.1 mM nonessential amino acids, 1× antibiotic/antimycotic, 10% heat-inactivated fetal bovine serum, and 200 μg/mL hygromycin (Life Technologies, Grand Island, NY) and kept in an incubator at 37 °C and 5% CO2. Upon reaching 80–90% confluency, the cells were harvested using premixed Earle’s Balanced Salt Solution (EBSS) with 5 μM EDTA (Life Technologies) and centrifuged at 3000 rpm for 10 min at 21 °C. The supernatant was removed, and the pellet was resuspended in 10 mL hypotonic lysis buffer (5 mM MgCl2, 5 mM Tris, pH 7.4 at 4 °C) and centrifuged at 20,000 rpm for 30 min at 4 °C. The pellet was then resuspended in fresh EBSS buffer made from 8.7 g/L Earle’s Balanced Salts without phenol red (US Biological, Salem, MA), 2.2 g/L sodium bicarbonate, pH to 7.4. A Bradford protein assay (Bio-Rad, Hercules, CA) was used to determine the protein concentration, and membranes were diluted to 500 μg/mL and stored at −80 °C for later use. Radioligand competition binding experiments were conducted using thawed membranes. Test compounds were freshly dissolved in 30% DMSO and 70% H2O to a stock concentration of 100 μM. To assist the solubilization of free-base compounds, 10 μL of glacial acetic acid was added along with DMSO. Each test compound was then diluted into 13 half-log serial dilutions using 30% DMSO vehicle; the final test concentrations ranged from 10 μM to 10 pM. The previously frozen membranes were diluted in fresh EBSS to a 100 μg/mL (for D2 or D3) or 200 μg/mL (D4) stock for binding. Radioligand competition experiments were conducted in glass tubes containing 300 μL of fresh EBSS buffer, 50 μL of diluted test compound, 100 μL of membranes (10 μg of total protein for D2 or D3 and 20 μg of total protein for D4), and 50 μL of [^3H]N-methylspiperone (0.4 nM final concentration; PerkinElmer). Nonspecific binding was determined using 10 μM butaclamol (Sigma-Aldrich, St. Louis, MO), and total binding was determined with the 30% DMSO vehicle. All compound dilutions were tested in triplicate and the reaction was incubated for 1 h at room temperature. The reaction was terminated by filtration through Whatman GF/B filters, presoaked for 1 h in 0.5% polyethylenimine, using a Brandel R48 filtering manifold (Brandel Instruments, Gaithersburg, MD). The filters were washed three times with 3 mL of ice-cold EBSS buffer and transferred to scintillation vials. CytoScint liquid scintillation cocktail (3 mL, MP Biomedicals, Solon, OH) was added, and vials were counted using a PerkinElmer Tri-Carb 2910 TR liquid scintillation counter (Waltham, MA).

D2R = D2R (Homo sapiens, UniProt P14416); design: expressed in transfected cells; host or cells: HEK293; conditions: human cloned receptor; read-out: Ki ± SEM, D2R; cited from earlier work
D3R [2] = biological target: T3, D3R; design: expressed in transfected cells; host or cells: HEK293; conditions: cited from earlier work; for D2/D3: ratio of Ki values D2R/D3R; for D4/D3: ratio of Ki values D4R/D3R
5-HT2AR = 5-HT2AR (Homo sapiens, UniProt P28223); design: expressed in transfected cells; host or cells: HEK (HEK-h5HT2A); conditions: human cloned receptor; read-out: Ki ± SEM, 5-HT2AR; cited from earlier work
5-HT2CR = biological target: T4, 5-HT2CR (Homo sapiens, UniProt P28335); design: expressed in transfected cells; host or cells: HEK (HEK-h5HT2C); conditions: human cloned receptor; read-out: Ki ± SEM, 5-HT2CR; cited from earlier work
T4 sequence (P28335 33-458): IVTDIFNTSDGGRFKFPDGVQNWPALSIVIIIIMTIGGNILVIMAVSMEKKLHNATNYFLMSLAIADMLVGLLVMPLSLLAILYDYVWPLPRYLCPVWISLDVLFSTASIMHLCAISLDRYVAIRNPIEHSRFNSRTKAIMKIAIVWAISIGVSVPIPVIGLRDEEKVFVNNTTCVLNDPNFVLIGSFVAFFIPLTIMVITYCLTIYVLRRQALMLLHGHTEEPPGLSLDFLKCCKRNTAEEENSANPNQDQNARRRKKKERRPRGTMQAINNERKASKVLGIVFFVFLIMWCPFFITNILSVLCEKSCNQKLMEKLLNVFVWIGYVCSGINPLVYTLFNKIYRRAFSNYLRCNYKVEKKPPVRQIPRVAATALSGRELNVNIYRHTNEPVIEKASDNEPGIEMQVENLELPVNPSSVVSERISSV

T3 sequence (P35462 whole entry): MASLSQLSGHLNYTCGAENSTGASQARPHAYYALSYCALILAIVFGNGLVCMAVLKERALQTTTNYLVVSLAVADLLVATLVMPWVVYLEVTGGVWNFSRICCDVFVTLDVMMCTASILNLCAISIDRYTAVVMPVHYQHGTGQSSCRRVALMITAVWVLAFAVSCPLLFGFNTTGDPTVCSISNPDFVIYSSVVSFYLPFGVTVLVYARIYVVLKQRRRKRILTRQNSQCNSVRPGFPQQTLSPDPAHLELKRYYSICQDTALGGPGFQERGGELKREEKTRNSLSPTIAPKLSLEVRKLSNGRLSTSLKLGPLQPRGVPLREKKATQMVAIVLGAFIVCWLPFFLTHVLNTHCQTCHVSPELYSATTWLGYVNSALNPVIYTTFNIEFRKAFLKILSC
T1 sequence (P21728 whole entry): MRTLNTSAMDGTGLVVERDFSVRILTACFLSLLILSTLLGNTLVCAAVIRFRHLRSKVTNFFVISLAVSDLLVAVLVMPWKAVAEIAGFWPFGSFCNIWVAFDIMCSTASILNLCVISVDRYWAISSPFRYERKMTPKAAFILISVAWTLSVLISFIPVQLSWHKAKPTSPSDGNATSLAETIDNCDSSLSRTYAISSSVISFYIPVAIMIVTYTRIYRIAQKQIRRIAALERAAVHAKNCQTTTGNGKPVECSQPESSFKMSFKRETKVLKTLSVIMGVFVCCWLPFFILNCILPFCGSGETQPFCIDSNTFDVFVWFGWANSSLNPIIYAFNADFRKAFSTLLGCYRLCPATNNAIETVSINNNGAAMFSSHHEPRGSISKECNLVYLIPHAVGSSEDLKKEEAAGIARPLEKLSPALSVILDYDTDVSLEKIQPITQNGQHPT
Sequence of D2R (P14416 whole entry): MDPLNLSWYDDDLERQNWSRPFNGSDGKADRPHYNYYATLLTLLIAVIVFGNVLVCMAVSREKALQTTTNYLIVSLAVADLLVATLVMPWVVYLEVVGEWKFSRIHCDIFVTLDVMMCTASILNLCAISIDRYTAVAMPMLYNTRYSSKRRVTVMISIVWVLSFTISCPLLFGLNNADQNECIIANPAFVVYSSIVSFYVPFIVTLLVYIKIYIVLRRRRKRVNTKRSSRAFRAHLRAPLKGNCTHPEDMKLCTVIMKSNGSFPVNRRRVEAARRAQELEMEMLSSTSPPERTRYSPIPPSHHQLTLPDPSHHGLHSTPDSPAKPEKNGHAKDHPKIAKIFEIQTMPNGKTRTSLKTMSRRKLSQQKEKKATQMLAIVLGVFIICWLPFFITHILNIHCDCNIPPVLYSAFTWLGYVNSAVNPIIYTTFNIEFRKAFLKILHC
Sequence of 5-HT2AR (P28223 whole entry): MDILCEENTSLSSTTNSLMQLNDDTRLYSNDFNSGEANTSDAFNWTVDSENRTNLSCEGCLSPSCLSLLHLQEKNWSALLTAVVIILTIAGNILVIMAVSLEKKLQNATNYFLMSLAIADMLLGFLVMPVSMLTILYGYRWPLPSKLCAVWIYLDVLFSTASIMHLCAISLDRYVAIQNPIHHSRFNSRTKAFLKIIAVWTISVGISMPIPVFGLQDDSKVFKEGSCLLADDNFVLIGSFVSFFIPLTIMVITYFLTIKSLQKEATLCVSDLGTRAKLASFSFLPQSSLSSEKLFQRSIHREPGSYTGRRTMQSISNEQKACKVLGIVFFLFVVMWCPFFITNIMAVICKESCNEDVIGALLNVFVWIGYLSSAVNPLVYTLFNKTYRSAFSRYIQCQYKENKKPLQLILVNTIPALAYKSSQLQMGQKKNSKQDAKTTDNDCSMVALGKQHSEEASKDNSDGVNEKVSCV

In the case of `Oc1cccc(OCCNCC2COCC(c3ccccc3)(c3ccccc3)O2)c1` (stereo not shown) [compound 2], the Ki (human D1R) is listed as 123 ± 11 nM, the Ki (human 5-HT1AR) is listed as 1.15 ± 0.03 nM and the D2/D3 (D3R [1]; ratio of Ki values D2R/D3R) is listed as 2. The D4/D3 (D3R [1]; ratio of Ki values D4R/D3R) was 8, the Ki (D2R) was 3.16 ± 1 nM and the Ki (D3R [2]; human cloned receptor, read-out: Ki ± SEM, D3R) was 1.38 ± 0.07 nM. The Ki (5-HT2AR) was 1410 ± 224 nM and the Ki (5-HT2CR) was 9770 ± 501 nM.
For `COc1ccccc1OCCNCC1COCC(c2ccccc2)(c2ccccc2)O1` (stereo not shown) [compound 1], the Ki (human D1R) is listed as 22.9 ± 3.1 nM.
In the case of `Cc1cc2c(s1)Nc1ccccc1N=C2N1CCN(C)CC1` [olanzapine], the D2/D3 (D3R [2]) is listed as 0.62 ^e and the D4/D3 (D3R [2]) is listed as 0.51 ^e.
In the case of `CN1CCN(C2=Nc3cc(Cl)ccc3Nc3ccccc32)CC1` [clozapine], the D2/D3 (D3R [2]) is given as 0.62 ^e and the D4/D3 (D3R [2]) is given as 0.21 ^e.
